{"source": "patent US20150265644A1", "about": "“THERAPEUTIC METHODS AND COMPOSITIONS FOR TREATING DIABETES UTILIZING DITERPENOID COMPOUNDS” (Orient Europharma Co., Ltd., priority 2014, published 2015)", "system": "IL-6-treated C2C12 cells", "assay": "Glycogen content assay in IL-6-induced insulin resistant C2C12 cells", "type": "cell-based", "conditions": "30 minutes", "procedure": "The C2C12 skeletal muscle cells were cultured in Dulbecco's modified Eagle's medium (DMEM; Gibco/Invitrogen, Carlsbad, Calif.), and the human hepatocellular carcinoma cell line, Hl-ep3B, was cultured in Roswell Park Memorial Institute medium 1640 (RPMI 1640 medium; Gibco/Invitrogen, Carlsbad, Calif.). Cells were cultured at 37° C. in the humidified incubator supplied with 5% CO2. Culture mediums were supplemented with 4.5 mgmL^−1 glucose, penicillin 100 IUmL^−1, streptomycin 100 μgmL^−1 and 10% fetal bovine serum (Gibco/Invitrogen, Carlsbad, Calif.). Only C2C12 cells were then switched to 2% horse serum for 3 days after reaching the 70% confluence. Myotubes formation was achieved after 4 days of incubation, and the cells were used for subsequent experiments. Culture mediums were replaced by serum free DMEM or RPMI for 24 h before experiments (see e.g., procedure described in Sultan et al., 2006).\nC2C12 and Hep3B cells were treated with 1 nM insulin, 100 μM metformin, and the assigned concentration of borapetoside A for 30 minutes. To develop the insulin resistance state of cells, C2C12 cells were incubated with IL-6 at 20 ngmL^−1 for 1 hour. Later, the cells were treated with 1 nM insulin, 100 μM metformin, and the assigned concentration of borapetoside A for 30 minutes. After the assigned treatment, cells were washed twice with phosphate buffered saline (PBS). Glycogen content was measured as previously described, with some modifications (see e.g., Savage et al., 2008). The protein concentrations of the cell lysates were determined by using Pierce BCA Protein Assay Kit (Thermo-Scientific, Rockford, Ill.). The glycogen content of each sample was normalized by total protein."}
{"smiles": "C[C@@]12C[C@@H](c3ccoc3)OC(=O)[C@@H]1C[C@@H]1OC(=O)[C@@]3(O)[C@@H](O[C@@H]4O[C@H](CO)[C@@H](O)[C@H](O)[C@H]4O)CC[C@@H]2[C@@]13C", "note": "[borapetoside A]", "values": [{"measurement": "fold increase of glycogen content", "setting": "IL-6-treated C2C12, 10^−6 mol/L", "result": "1.64±0.05", "unit": "fold"}, {"measurement": "fold increase of glycogen content", "setting": "IL-6-treated C2C12, 10^−7 mol/L", "result": "1.38±0.06", "unit": "fold"}, {"measurement": "fold increase of glycogen content", "setting": "IL-6-treated C2C12, 10^−8 mol/L", "result": "1.35±0.08", "unit": "fold"}]}
